Reference: ChEMBL document CHEMBL1130994, “3-trifluoromethylcarbacephems: synthesis of broad spectrum antibacterial compounds” (1998)
Values after ≈ are worked out from the molar mass of the structure shown.

How the values were obtained:
Enterobacter cloacae [1] = experiment: Compound was evaluated for inhibitory activity against EB5 Enterobacter cloacae; assay type: functional
Providencia rettgeri [2] = experiment: Compound was evaluated for inhibitory activity against C24 Providencia rettgeri; assay type: functional
Klebsiella pneumoniae [3] = experiment: Compound was evaluated for inhibitory activity against KAE Klebsiella pneumoniae; assay type: functional
Haemophilus influenzae [4] = experiment: Compound was evaluated for inhibitory activity against 76 Haemophilus influenzae beta-lactamase; assay type: functional
Escherichia coli [5] = experiment: Compound was evaluated for inhibitory activity against TEM Escherichia coli beta-lactamase; assay type: functional
Klebsiella pneumoniae [6] = experiment: Compound was evaluated for inhibitory activity against X26 Klebsiella pneumoniae; assay type: functional
Salmonella [7] = experiment: Compound was evaluated for inhibitory activity against X514 Salmonella; assay type: functional
Acinetobacter [8] = experiment: Compound was evaluated for inhibitory activity against AC12 Acinetobacter; assay type: functional
Staphylococcus aureus [9] = experiment: Compound was evaluated for inhibitory activity against X400S Staphylococcus aureus methicillin resistant and macrolide resistant; assay type: functional
Enterococcus faecalis [10] = experiment: Compound was evaluated for inhibitory activity against 2041 Enterococcus faecalis Gp.D streptococcus penicillin susceptible; assay type: functional
Serratia [11] = experiment: Compound was evaluated for inhibitory activity against SE3 Serratia; assay type: functional
Providencia stuartii [12] = experiment: Compound was evaluated for inhibitory activity against PR33 Providencia stuartii; assay type: functional
Enterobacter cloacae [13] = experiment: Compound was evaluated for inhibitory activity against 265a Enterobacter cloacae beta-lactamase; assay type: functional
Citrobacter [14] = experiment: Compound was evaluated for inhibitory activity against CF17 Citrobacter; assay type: functional
Klebsiella aerogenes [15] = experiment: Compound was evaluated for inhibitory activity against C32 Enterobacter aerogenes; assay type: functional
Staphylococcus aureus [16] = experiment: Compound was evaluated for inhibitory activity against S13E Staphylococcus aureus methicillin resistant penicillin resistant macrolide sensitive (PBP2a producer); assay type: functional
Streptococcus pyogenes [17] = experiment: Compound was evaluated for inhibitory activity against C203 Streptococcus pyogenes Gp.A; assay type: functional
Klebsiella aerogenes [18] = experiment: Compound was evaluated for inhibitory activity against EB17 Enterobacter aerogenes; assay type: functional
Staphylococcus aureus [19] = experiment: Compound was evaluated for inhibitory activity against X1.1 Staphylococcus aureus penicillin sensitive; assay type: functional
Haemophilus influenzae [20] = experiment: Compound was evaluated for inhibitory activity against C.L Haemophilus influenzae ampicillin sensitive; assay type: functional
Serratia [21] = experiment: Compound was evaluated for inhibitory activity against X99 Serratia; assay type: functional
Morganella morganii [22] = experiment: Compound was evaluated for inhibitory activity against PR15 Morganella morganii; assay type: functional
Streptococcus pneumoniae = experiment: Compound was evaluated for inhibitory activity against Park S Streptococcus pneumoniae; assay type: functional
Escherichia coli [23] = experiment: Compound was evaluated for inhibitory activity against EC14 Escherichia coli sensitive; assay type: functional
Streptococcus pyogenes [24] = experiment: Compound was evaluated for inhibitory activity against C203 Streptococcus pyogenes Gp.A; No growth; assay type: functional, organism-based
Enterococcus faecalis [25] = experiment: Compound was evaluated penicillin susceptible; assay type: functional
Salmonella [26] = experiment: Compound was evaluated for minimum inhibitory concentration against X514 Salmonella; assay type: functional
Serratia [27] = experiment: Compound was evaluated for minimum inhibitory concentration against X99 Serratia; assay type: functional
Providencia stuartii [28] = experiment: Compound was evaluated for minimum inhibitory concentration against PR33 Providencia stuartii; assay type: functional
Citrobacter [29] = experiment: Compound was evaluated for minimum inhibitory concentration against CF17 Citrobacter; assay type: functional
Morganella morganii [30] = experiment: Compound was evaluated for minimum inhibitory concentration against PR15 Morganella morganii; assay type: functional
Providencia rettgeri [31] = experiment: Compound was evaluated for minimum inhibitory concentration against C24 Providencia rettgeri; assay type: functional
Acinetobacter [32] = experiment: Compound was evaluated for minimum inhibitory concentration against AC12 Acinetobacter; assay type: functional
Serratia [33] = experiment: Compound was evaluated for minimum inhibitory concentration against SE3 Serratia; assay type: functional

SMILES	MIC (Enterobacter cloacae [1]) [µM]	MIC (Providencia rettgeri [2]) [µM]	MIC (Klebsiella pneumoniae [3]) [µM]	MIC (Haemophilus influenzae [4]) [µM]	MIC (Escherichia coli [5]) [µM]	MIC (Klebsiella pneumoniae [6]) [µM]	MIC (Acinetobacter [8]) [µM]	MIC (Staphylococcus aureus [9]) [µM]	MIC (Enterococcus faecalis [10]) [µM]	MIC (Serratia [11]) [µM]	MIC (Providencia stuartii [12]) [µM]	MIC (Enterobacter cloacae [13]) [µM]	MIC (Citrobacter [14]) [µM]	MIC (Klebsiella aerogenes [15]) [µM]	MIC (Staphylococcus aureus [16]) [µM]	MIC (Klebsiella aerogenes [18]) [µM]	MIC (Staphylococcus aureus [19]) [µM]	MIC (Haemophilus influenzae [20]) [µM]	MIC (Streptococcus pneumoniae) [µM]	MIC (Escherichia coli [23]) [µM]	further results
N[C@@H](C(=O)N[C@@H]1C(=O)N2C(C(=O)O)=C(Cl)CS[C@H]12)c1ccccc1 [CEFACLOR ANHYDROUS]	32 (≈ 11.8 µg/mL)	64 (≈ 23.5 µg/mL)	128 (≈ 47.1 µg/mL)	1 (≈ 0.368 µg/mL)	2 (≈ 0.736 µg/mL)	0.25 (≈ 0.092 µg/mL)	128 (≈ 47.1 µg/mL)	128 (≈ 47.1 µg/mL)	32 (≈ 11.8 µg/mL)	128 (≈ 47.1 µg/mL)	64 (≈ 23.5 µg/mL)	128 (≈ 47.1 µg/mL)	128 (≈ 47.1 µg/mL)	32 (≈ 11.8 µg/mL)	128 (≈ 47.1 µg/mL)	8 (≈ 2.94 µg/mL)	0.5 (≈ 0.184 µg/mL)	2 (≈ 0.736 µg/mL)	0.5 (≈ 0.184 µg/mL)	1 (≈ 0.368 µg/mL)	MIC (Salmonella [7]): 0.5 µM (≈ 0.184 µg/mL); MIC (Streptococcus pyogenes [17]): 0.06 µM (≈ 0.0221 µg/mL); MIC (Serratia [21]): 64 µM (≈ 23.5 µg/mL); MIC (Morganella morganii [22]): 128 µM (≈ 47.1 µg/mL)
N[C@@H](C(=O)N[C@@H]1C(=O)N2C(C(=O)O)=C(C(F)(F)F)CC[C@H]12)c1cccc(C(F)(F)F)c1	4 (≈ 1.81 µg/mL)	64 (≈ 28.9 µg/mL)	64 (≈ 28.9 µg/mL)	1 (≈ 0.451 µg/mL)	16 (≈ 7.22 µg/mL)	1 (≈ 0.451 µg/mL)	32 (≈ 14.4 µg/mL)	16 (≈ 7.22 µg/mL)	16 (≈ 7.22 µg/mL)	128 (≈ 57.8 µg/mL)	32 (≈ 14.4 µg/mL)	128 (≈ 57.8 µg/mL)	128 (≈ 57.8 µg/mL)	128 (≈ 57.8 µg/mL)	16 (≈ 7.22 µg/mL)	128 (≈ 57.8 µg/mL)	2 (≈ 0.903 µg/mL)	1 (≈ 0.451 µg/mL)	0.13 (≈ 0.0587 µg/mL)	8 (≈ 3.61 µg/mL)	MIC (Streptococcus pyogenes [24]): No growth; MIC (Salmonella [7]): 32 µM (≈ 14.4 µg/mL); MIC (Serratia [21]): 128 µM (≈ 57.8 µg/mL); MIC (Morganella morganii [22]): 32 µM (≈ 14.4 µg/mL)
CCS(=O)(=O)Nc1cccc([C@@H](N)C(=O)N[C@@H]2C(=O)N3C(C(=O)O)=C(C(F)(F)F)CC[C@H]23)c1	32 (≈ 15.7 µg/mL)	32 (≈ 15.7 µg/mL)	32 (≈ 15.7 µg/mL)	4 (≈ 1.96 µg/mL)	1 (≈ 0.49 µg/mL)	0.25 (≈ 0.123 µg/mL)	64 (≈ 31.4 µg/mL)	32 (≈ 15.7 µg/mL)	–	128 (≈ 62.8 µg/mL)	16 (≈ 7.85 µg/mL)	32 (≈ 15.7 µg/mL)	32 (≈ 15.7 µg/mL)	16 (≈ 7.85 µg/mL)	32 (≈ 15.7 µg/mL)	16 (≈ 7.85 µg/mL)	4 (≈ 1.96 µg/mL)	1 (≈ 0.49 µg/mL)	0.13 (≈ 0.0638 µg/mL)	1 (≈ 0.49 µg/mL)	MIC (Salmonella [7]): 1 µM (≈ 0.49 µg/mL); MIC (Streptococcus pyogenes [17]): 0.06 µM (≈ 0.0294 µg/mL); MIC (Serratia [21]): 64 µM (≈ 31.4 µg/mL); MIC (Morganella morganii [22]): 16 µM (≈ 7.85 µg/mL); MIC (Enterococcus faecalis [25]): 32 µM (≈ 15.7 µg/mL)
N[C@@H](C(=O)N[C@@H]1C(=O)N2C(C(=O)O)=C(C(F)(F)F)CC[C@H]12)c1ccc(F)cc1	8 (≈ 3.21 µg/mL)	8 (≈ 3.21 µg/mL)	8 (≈ 3.21 µg/mL)	1 (≈ 0.401 µg/mL)	1 (≈ 0.401 µg/mL)	0.5 (≈ 0.201 µg/mL)	64 (≈ 25.7 µg/mL)	64 (≈ 25.7 µg/mL)	32 (≈ 12.8 µg/mL)	32 (≈ 12.8 µg/mL)	8 (≈ 3.21 µg/mL)	8 (≈ 3.21 µg/mL)	8 (≈ 3.21 µg/mL)	8 (≈ 3.21 µg/mL)	32 (≈ 12.8 µg/mL)	8 (≈ 3.21 µg/mL)	1 (≈ 0.401 µg/mL)	0.5 (≈ 0.201 µg/mL)	0.25 (≈ 0.1 µg/mL)	1 (≈ 0.401 µg/mL)	MIC (Salmonella [26]): 0.5 µM (≈ 0.201 µg/mL); MIC (Streptococcus pyogenes [17]): 0.06 µM (≈ 0.0241 µg/mL); MIC (Serratia [21]): 16 µM (≈ 6.42 µg/mL); MIC (Morganella morganii [22]): 16 µM (≈ 6.42 µg/mL)
Cc1ccc([C@@H](N)C(=O)N[C@@H]2C(=O)N3C(C(=O)O)=C(C(F)(F)F)CC[C@H]23)cc1	16 (≈ 6.36 µg/mL)	–	8 (≈ 3.18 µg/mL)	4 (≈ 1.59 µg/mL)	4 (≈ 1.59 µg/mL)	0.5 (≈ 0.199 µg/mL)	–	4 (≈ 1.59 µg/mL)	8 (≈ 3.18 µg/mL)	–	–	32 (≈ 12.7 µg/mL)	–	8 (≈ 3.18 µg/mL)	4 (≈ 1.59 µg/mL)	8 (≈ 3.18 µg/mL)	1 (≈ 0.397 µg/mL)	2 (≈ 0.795 µg/mL)	0.13 (≈ 0.0517 µg/mL)	2 (≈ 0.795 µg/mL)	MIC (Serratia [27]): 16 µM (≈ 6.36 µg/mL); MIC (Providencia stuartii [28]): 16 µM (≈ 6.36 µg/mL); MIC (Citrobacter [29]): 16 µM (≈ 6.36 µg/mL); MIC (Morganella morganii [30]): 8 µM (≈ 3.18 µg/mL); MIC (Salmonella [26]): 4 µM (≈ 1.59 µg/mL); MIC (Streptococcus pyogenes [17]): 0.06 µM (≈ 0.0238 µg/mL); MIC (Providencia rettgeri [31]): 16 µM (≈ 6.36 µg/mL); MIC (Acinetobacter [32]): 16 µM (≈ 6.36 µg/mL); MIC (Serratia [33]): 64 µM (≈ 25.4 µg/mL)
